Measured values taken from ChEMBL document CHEMBL2390853, “The products of the reaction between 6-amine-1,3-dimethyl uracil and bis-chalcones induce cytotoxicity with massive vacuolation in HeLa cervical cancer cell line” (Eur J Med Chem, 2013).
Calls of active or inactive are those of the source. The rule behind the calls is not given here.

What was measured:
[1] = system: HeLa; experiment: Induction of autophagy in human HeLa cells assessed as increase in conversion of LC3B-1 to LC3B-2 at 10 uM after 3 hrs by Western blot analysis; format: functional, cell-based
[2] = Cytotoxicity against human HEK293Q cells assessed as growth inhibition after 48 hrs by MTT assay; format: cell-based
[3] = system: SW480; experiment: Cytotoxicity against human SW480 cells assessed as growth inhibition after 48 hrs by MTT assay; format: functional, cell-based; details: SW480, 48 h
[4] = system: SW-620; experiment: Cytotoxicity against human SW620 cells assessed as growth inhibition after 48 hrs by MTT assay; format: functional, cell-based; details: SW-620, 48 h
[5] = system: MCF7; experiment: Cytotoxicity against human MCF7 cells assessed as growth inhibition after 48 hrs by MTT assay; format: functional, cell-based; details: MCF7, 48 h
[6] = Cytotoxicity against human CALO cells assessed as growth inhibition after 48 hrs by MTT assay; format: functional, cell-based
[7] = Cytotoxicity against human C33 cells assessed as growth inhibition after 48 hrs by MTT assay; format: functional, cell-based; details: C33, 48 h
[8] = system: K562; experiment: Cytotoxicity against human K562 cells assessed as growth inhibition after 48 hrs by MTT assay; format: functional, cell-based; details: K562, 48 h
[9] = system: HeLa; experiment: Cytotoxicity against human HeLa cells assessed as growth inhibition after 48 hrs by MTT assay; format: functional, cell-based
[10] = system: HeLa; experiment: Induction of cytoplasmic vacuolation in human HeLa cells; format: functional, cell-based
[11] = system: HeLa; experiment: Cell cycle arrest in human HeLa cells assessed as accumulation at polyploidy region at 0.25 uM after 48 to 72 hrs by propidium iodide staining-based FACS flow cytometric analysis; format: functional
[12] = system: HeLa; experiment: Cell cycle arrest in human HeLa cells assessed as accumulation at sub G1 phase at 0.25 uM after 48 to 72 hrs by propidium iodide staining-based FACS flow cytometric analysis; format: functional
[13] = system: HeLa; experiment: Induction of apoptosis in human HeLa cells assessed as change in procaspase-3 expression at 0.25 uM after 24 hrs by Western blot analysis; format: functional, cell-based
[14] = system: HeLa; experiment: Induction of apoptosis in human HeLa cells assessed as change in Bax expression at 0.25 uM after 24 hrs by Western blot analysis; format: functional, cell-based
[15] = system: HeLa; experiment: Cell cycle arrest in human HeLa cells assessed as accumulation at G2/M phase at 0.25 uM after 12 hrs by propidium iodide staining-based FACS flow cytometric analysis; format: functional
[16] = system: HeLa; experiment: Induction of apoptosis in human HeLa cells assessed as DNA fragmentation at 0.25 uM after 48 hrs by TUNEL assay; format: functional, cell-based
[17] = system: HeLa; experiment: Induction of apoptosis in human HeLa cells assessed as change in p53 expression at 0.25 uM after 24 hrs by Western blot analysis; format: functional, cell-based
[18] = system: HeLa; experiment: Induction of apoptosis in human HeLa cells; format: functional, cell-based
[19] = system: HeLa; experiment: Cytotoxicity against human HeLa cells assessed as cell viability at 50 uM after 3 hrs; format: cell-based
[20] = Cytotoxicity against human HEK293Q cells assessed as growth inhibition at 0.25 to 100 uM after 48 hrs by MTT assay; format: cell-based
[21] = system: CALO; experiment: Cytotoxicity against human CALO cells assessed as growth inhibition at 0.25 to 100 uM after 48 hrs by MTT assay; format: functional, cell-based
[22] = system: MCF7; experiment: Cytotoxicity against human MCF7 cells assessed as growth inhibition at 0.25 to 100 uM after 48 hrs by MTT assay; format: functional, cell-based
[23] = system: C33; experiment: Cytotoxicity against human C33 cells assessed as growth inhibition at 0.25 to 100 uM after 48 hrs by MTT assay; format: functional, cell-based
[24] = system: SW-620; experiment: Cytotoxicity against human SW620 cells assessed as growth inhibition at 0.25 to 100 uM after 48 hrs by MTT assay; format: functional, cell-based
[25] = system: HeLa; experiment: Cytotoxicity against human HeLa cells assessed as growth inhibition at 0.25 to 100 uM after 48 hrs by MTT assay; format: functional, cell-based
[26] = system: K562; experiment: Cytotoxicity against human K562 cells assessed as growth inhibition at 0.25 to 100 uM after 48 hrs by MTT assay; format: functional, cell-based
[27] = system: SW480; experiment: Cytotoxicity against human SW480 cells assessed as growth inhibition at 0.25 to 100 uM after 48 hrs by MTT assay; format: functional, cell-based
[28] = system: HeLa; experiment: Induction of necrosis in human HeLa cells at 13 uM after 24 to 48 hrs by LDH release assay; format: functional, cell-based
[29] = system: HeLa; experiment: Cell cycle arrest in human HeLa cells assessed as decrease in reduction in cells at S phase at 13 uM after 72 hrs by propidium iodide staining-based FACS flow cytometric analysis; format: functional
[30] = system: HeLa; experiment: Cell cycle arrest in human HeLa cells assessed as effect on G2/M phase at 13 uM after 12 to 72 hrs by propidium iodide staining-based FACS flow cytometric analysis; format: functional
[31] = system: HeLa; experiment: Induction of apoptosis in human HeLa cells assessed as DNA fragmentation at 13 uM after 48 hrs by TUNEL assay; format: functional, cell-based
[32] = system: HeLa; experiment: Induction of cytoplasmic vacuolation in human HeLa cells at 13 uM after 24 hrs by neutral red staining-based light microscopic analysis; format: functional, cell-based
[33] = system: HeLa; experiment: Cytotoxicity against human HeLa cells assessed as cell viability at 13 uM after 48 hrs by MTT assay in presence of gallic acid; format: functional, cell-based
[34] = system: HeLa; experiment: Induction of autophagy in human HeLa cells assessed as large vacuole formation at 13 uM after 24 hrs by inverted microscopic analysis in presence of spautin-1; format: functional, cell-based
[35] = system: HeLa; experiment: Cytotoxicity against human HeLa cells assessed as cell viability at 13 uM after 24 hrs by MTT assay in presence of spautin-1; format: functional, cell-based
[36] = system: HeLa; experiment: Induction of cytoplasmic vacuolation in human HeLa cells at 13 uM after 24 hrs by hematoxylin staining-based light microscopic analysis; format: functional, cell-based
[37] = system: HeLa; experiment: Cell cycle arrest in human HeLa cells assessed as accumulation at sub G1 phase at 13 uM after 72 hrs by propidium iodide staining-based FACS flow cytometric analysis; format: functional
[38] = system: HeLa; experiment: Cell cycle arrest in human HeLa cells assessed as increase in accumulation at G1 phase at 13 uM after 48 to 72 hrs by propidium iodide staining-based FACS flow cytometric analysis; format: functional
[39] = system: HeLa; experiment: Induction of apoptosis in human HeLa cells assessed as change in Bax expression at 2.5 to 15 uM after 24 hrs by Western blot analysis; format: functional, cell-based
[40] = system: HeLa; experiment: Induction of autophagy in human HeLa cells assessed as increase in conversion of LC3B-1 to LC3B-2 at 13 uM after 24 hrs by Western blot analysis; format: functional, cell-based
[41] = system: HeLa; experiment: Induction of apoptosis in human HeLa cells assessed as change in procaspase-3 expression at 2.5 to 15 uM after 24 hrs by Western blot analysis; format: functional, cell-based
[42] = system: HeLa; experiment: Induction of cytoplasmic vacuolation in human HeLa cells assessed as change in cell morphology at 13 uM after 24 hrs by hematoxylin staining-based light microscopic analysis in presence of cycloheximide; format: functional
[43] = system: HeLa; experiment: Induction of apoptosis in human HeLa cells assessed as change in p53 expression at 2.5 to 15 uM after 24 hrs by Western blot analysis; format: functional, cell-based
[44] = system: HeLa; experiment: Induction of necrosis in human HeLa cells assessed as inhibition of cell viability at 13 uM after 24 to 48 hrs by MTT assay; format: functional, cell-based
[45] = system: HeLa; experiment: Induction of necrosis in human HeLa cells assessed as inhibition of cell viability at 13 uM after 24 to 48 hrs by tryphan blue exclusion assay; format: functional, cell-based
[46] = system: HeLa; experiment: Induction of autophagy in human HeLa cells assessed as increase in conversion of LC3B-1 to LC3B-2 at 13 uM after 24 hrs by Western blot analysis in presence of spautin-1; format: functional, cell-based
[47] = system: HeLa; experiment: Induction of apoptosis in human HeLa cells assessed as change in Bcl-2 expression at 2.5 to 15 uM after 24 hrs by Western blot analysis; format: functional, cell-based

For `Fc1ccc(CNc2ncnc3ccc(F)cc23)cc1`, which Activity [1] is on record?
The Activity was “inactive”.

With `Cn1cccc1/C=C1\COCc2c1nc1c(c2-c2cccn2C)c(=O)n(C)c(=O)n1C` as the compound, how does the IC50 [2] read?
The IC50 was 67.7 µM.

And the IC50 [3]?
Its IC50 is 28.2 µM.

What about the IC50 [4] of the same compound?
The IC50 was 14 µM.

What about the IC50 [5] of the same compound?
Its IC50 is 8.37 µM.

And the IC50 [6]?
The IC50 was 43.7 µM.

And the IC50 [7]?
The IC50 was 21.6 µM.

And the IC50 [8]?
Its IC50 is 37.6 µM.

And the IC50 [9]?
The IC50 was 19.6 µM.

With `Cn1c(=O)c2c(-c3ccsc3)c3c(nc2n(C)c1=O)/C(=C/c1ccsc1)CCC3` as the compound, how does the IC50 [2] read?
The IC50 was > 100 µM.

And the IC50 [3]?
The IC50 was > 100 µM.

And the IC50 [4]?
The IC50 was > 100 µM.

And the IC50 [5]?
Its IC50 is > 100 µM.

And the IC50 [6]?
Its IC50 is > 100 µM.

And the IC50 [7]?
The IC50 was > 100 µM.

What about the IC50 [8] of the same compound?
Its IC50 is > 100 µM.

What about the Activity [10] of the same compound?
Its Activity is “inactive”.

What about the IC50 [9] of the same compound?
The IC50 was > 100 µM.

Which Activity [11] does the source give for `CC(=O)O[C@H]1C(=O)[C@@]2(C)[C@H]([C@H](OC(=O)c3ccccc3)[C@]3(O)C[C@H](OC(=O)[C@H](O)[C@@H](NC(=O)c4ccccc4)c4ccccc4)C(C)=C1C3(C)C)[C@]1(OC(C)=O)CO[C@@H]1C[C@@H]2O` here?
Its Activity is “Active”.

What about the Activity [12] of the same compound?
Its Activity is “Active”.

What about the Activity [13] of the same compound?
Its Activity is “inactive”.

What about the Activity [14] of the same compound?
The Activity was “inactive”.

And the Activity [15]?
Its Activity is “Active”.

And the Activity [16]?
The Activity was “Active”.

And the Activity [17]?
The Activity was “inactive”.

And the Activity [18]?
Its Activity is “Active”.

With `C[C@@H]1C[C@@H]([C@H](O)CC2CC(=O)NC(=O)C2)C(=O)[C@@H](C)C1` [CYCLOHEXIMIDE] as the compound, how does the Activity [19] read?
The Activity was “Non-toxic”.

What does the source list for `Cn1c(=O)c2c(-c3ccsc3)c3c(nc2n(C)c1=O)/C(=C/c1ccsc1)COC3`?
Activity [20]: Non-toxic; growth inhibition (GI) [21]: inactive; growth inhibition (GI) [22]: inactive; growth inhibition (GI) [23]: inactive; growth inhibition (GI) [24]: inactive; growth inhibition (GI) [25]: inactive; Activity [10]: inactive; growth inhibition (GI) [26]: inactive; growth inhibition (GI) [27]: inactive

What does the source list for `Cn1cccc1/C=C1\CCCc2c1nc1c(c2-c2cccn2C)c(=O)n(C)c(=O)n1C`?
Activity [28]: Active; Activity [29]: Active; Activity [30]: inactive; IC50 [2]: 60.1 µM; IC50 [3]: 4.4 µM; Activity [31]: inactive; IC50 [4]: 8.54 µM; IC50 [5]: 9.33 µM; Activity [32]: Active; Activity [33]: Active; Activity [34]: inactive; Activity [35]: Active; IC50 [6]: 13.2 µM; Activity [36]: Active; Activity [37]: inactive; Activity [38]: Active; Activity [39]: inactive; IC50 [7]: 22.2 µM; Activity [40]: Active; Activity [41]: inactive; Activity [42]: Active; IC50 [8]: 10.4 µM; Activity [43]: inactive; Activity [44]: Active; Activity [45]: Active; Activity [46]: inactive; IC50 [9]: 13.1 µM; Activity [47]: inactive
